Measurements published in US20020028474A1, “Composition for immunohistochemical staining” (DAIICHI PURE CHEMICAL CO., LTD., priority 1996, published 2002).
Where a name gives a salt, the structure may show the parent alone. One block for each molecule: values may come before it.

Columns and labels:
Type in all cases: physicochemical
[1] = Fluorescence observed by infrared ray microscope on cotton gauze thread, with or without sodium distearoylphosphatidate/octyl glucoside solution (Example 1); parameters: key: +++: Definitely bright; ++: Bright.; +: Observable; ±: Slightly observable; conditions: for Fluorescence intensity, No addition group: no DSPA/OG solution; for Fluorescence intensity, Addition group: sodium distearoylphosphatidate + octyl glucoside solution added
Procedure: Octyl glucoside (Dojindo Laboratories, 880 mg) was carefully added to phosphate buffered saline (10 ml, pH 7.4) and dissolved with stirring on a water bath at 40° C. Sodium distearoylphosphatidate (148.8 mg) was added to the resulting solution and dissolved with stirring over a water bath at 60° C., and then the solution was added with phosphate buffered saline up to a final volume of 20 ml. The solution was returned to room temperature and stored as frozen aliquots of 1 ml volume before use. The final concentrations of sodium distearoylphosphatidate and octyl glucoside in the solution were 10 mM and 150 mM, respectively.
The above diagnosis marker (54 μg) in the lyophilized state was added with 10% (v/v) dimethyl sulfoxide (DMSO)/phosphate buffered saline (20 μl, pH 7.4) and dissolved. The above solution of sodium distearoylphosphatidate and octyl glucoside (5 μl) was added to 5 μl of the resulting solution, which was warmed beforehand, and mixed by repeating careful suction and ejection using a micropipette to obtain a composition of the present invention in the form of an aqueous solution. By using an indocyanine green (ICG) solution, ICC-sulfo-OSu solution, and water (control) instead of the solution of the diagnosis marker, aqueous compositions were prepared in the same manner as described above.
BHSM-IR (Olympus Optical) was used as an infrared ray microscope that allows observation in visible light to near infrared light region. The microscope was equipped with an excitation light transmitting filter that transmits lights of 710-790 nm (Asahi Bunko) under the sample, and with an excitation light cutting filter that transmits lights of 810-920 nm (Asahi Bunko) over the sample. KP-MI from Hitachi Electronic Engineering was used as a CCD, and fluorescence caught by the CCD was taken into an image collecting apparatus (EVIP-230, Olympus Optical), and recorded in an image recording apparatus (S321S, Olympus Optical) via an amplification system (Olympus Optical).
5 μl of each of the samples was dropped onto a cotton gauze thread (1 cm) placed on an object glass, and images were observed under irradiation by ordinary light and infrared light using the above optical system. […] The recorded images were converted into final images through an image processing comprising the steps of integration of an original image, integration of a background image, formation of a subtraction image, formation of a filtering image, and contrast enhancement by using the above-mentioned apparatus. […] In the table, all of the concentrations indicate those calculated based on ICG concentration. […] In the figure, (a) represents the result obtained under irradiation of ordinary light, and (b) represents the result obtained under irradiation of infrared ray.

[2] = Fluorescence intensity enhancing effect versus octyl glucoside concentration (Example 3); conditions: for Fluorescence wavelength / Fluorescence intensity: excitation 768 nm; for Fluorescence intensity: labeled anti-mucin antibody 83.3 nM, 50° C.; for Fluorescence intensity (standard): 1 ppm, λex=251 nm, λem=450 nm
Procedure: The final antibody concentration in the diagnostic markers was 83.3 nM, and the IOG-sulfo-OSu concentration was 1.33 μM. Fluorescence spectra of the samples were measured in the same manner as in Example 2. The slit width was 2 nm for each of excitation light and fluorescence.

[3] = Fluorescence spectrum of compositions of ICG-sulfo-OSu-labeled mouse anti-mucin antibody with fluorescence intensity enhancing agents (Example 2); conditions: 1 ppm, λex=255 nm, λem=451 nm
Procedure: The above diagnostic marker in the form of lyophilized product obtained from the mouse anti-mucin antibody (100 μg) was added with 4.0 ml of phosphate buffered saline and dissolved. 1.5 ml of the resulting solution was added with 1.5 ml of a solution of the fluorescence intensity enhancing agent of the present invention, and then the mixture was warmed over a water bath at 50° C. to prepare a final sample. As a control, a solution was prepared in the same manner by adding 1.5 ml of phosphate buffered saline. The final antibody concentration in the diagnostic marker was 83.3 nM, and the ICG-sulfo-OSu concentration was 1.33 μM. Fluorescence spectrum of each sample was measured by using a Hitachi spectrophotometer 650-40. The slit width was 5 nm for each of excitation light and fluorescence.

[4] = before the spectrum measurement

- Fluorescence intensity, No addition group ([1]; 1 mg/ml in terms of ICG, fluorescence at 800 nm or more): ++
- Fluorescence intensity, Addition group ([1]; 1 mg/ml in terms of ICG): ++
SMILES: CC1(C)C(/C=C/C=C/C=C/C=C2\N(CCCCS(=O)(=O)O)c3ccc4ccccc4c3C2(C)C)=[N+](CCCCS(=O)(=O)[O-])c2ccc3ccccc3c21 [ICC, indocyanine green]

- Fluorescence intensity, No addition group ([1]; 10 μg/ml in terms of ICG): +
- Fluorescence intensity, Addition group ([1]; 10 μg/ml in terms of ICG): +
- Fluorescence intensity, No addition group ([1]; 100 μg/ml in terms of ICG): ±
- Fluorescence intensity, Addition group ([1]; 100 μg/ml in terms of ICG): ++
SMILES: CC1(C)C(/C=C/C=C/C=C/C=C2\N(CCCCS(=O)(=O)[O-])c3ccc4ccccc4c3C2(C)C)=[N+](CCCCCC(=O)ON2C(=O)CC(S(=O)(=O)[O-])C2=O)c2ccc3ccccc3c21.[Na+] (stereo not drawn) [ICG-sulfo-OSu, indocyanine green-N-hydroxysulfosuccinimide ester]

- Fluorescence wavelength ([2]; OG 1.0 mM): 806 nm
- Fluorescence intensity ([2]; OG 1.0 mM): 0.150
- Fluorescence wavelength ([2]; OG 1.50 mM): 821 nm
- Fluorescence intensity ([2]; OG 1.50 mM): 0.588
- Fluorescence wavelength ([2]; OG 5.0 mM): 804 nm
- Fluorescence intensity ([2]; OG 5.0 mM): 0.150
- Fluorescence wavelength ([2]; OG 10.0 mM): 809 nm
- Fluorescence intensity ([2]; OG 10.0 mM): 0.189
- Fluorescence wavelength ([2]; OG 20.0 mM): 817 nm
- Fluorescence intensity ([2]; OG 20.0 mM): 0.436
- Fluorescence wavelength ([2]; OG 37.5 mM): 817 nm
- Fluorescence intensity ([2]; OG 37.5 mM): 0.520
- Fluorescence wavelength ([2]; OG 50.0 mM): 820 nm
- Fluorescence intensity ([2]; OG 50.0 mM): 0.515
- Fluorescence wavelength ([2]; OG 75.0 mM): 816 nm
- Fluorescence intensity ([2]; OG 75.0 mM): 0.525
- Fluorescence wavelength ([2]; OG 100 mM): 816 nm
- Fluorescence intensity ([2]; OG 100 mM): 0.600
SMILES: CCCCCCCCO[C@@H]1O[C@H](CO)[C@@H](O)[C@H](O)[C@H]1O [OG, octyl glucoside]
- shift of fluorescence wavelength to a longer wavelength region versus octyl glucoside concentration ([2]; ICG-sulfo-OSu labeled anti-mucin antibody): sharp increases were observed at concentrations near the critical micelle concentration
- dependence of fluorescence intensity on octyl glucoside concentration ([2]; ICG-sulfo-OSu labeled anti-mucin antibody, critical micelle concentration 25 mM): Sharp increases of fluorescence intensity were observed at concentrations near the critical micelle concentration

- Fluorescence intensity (standard) ([2]; after the spectrum measurement): 96.0
- Fluorescence intensity (standard) [2, 4]: 100.0
- Fluorescence intensity (standard) ([3]; after the spectrum measurement): 69.5
- Fluorescence intensity (standard) [3, 4]: 68.0
SMILES: C=C[C@H]1C[N@@]2CC[C@H]1C[C@H]2[C@H](O)c1ccnc2ccc(OC)cc12 [quinine sulfate, reference compound]
